Experimental data from US6610675B1 (priority 1980, dated 2003).

Assays:
[1] = system: granulation tissue formation caused by implantation of cotton pellets; experiment: Granuloma formation test (local cotton pellet granuloma assay); format: in vivo, rat
Method: The test compound was dissolved in acetone and aliquots of varying concentrations were injected into cotton pellets. The pellets were dried and then one pellet was implanted beneath the skin of each test rat. Six days later, the animals were sacrificed and the granulation tissue (granuloma) which formed in and around the implanted pellet was removed, dried and weighed. In addition, the thymi and adrenals were removed and weighed.

thymus weight in rats = experiment: Thymus inhibition testing (subcutaneous administration); format: in vivo, rat; details: three days
Method: Several further studies were undertaken to determine the effects of selected compounds of the invention on thymi weights in rats when the drugs were systemically administered. In each of these studies, male Sprague-Dawley rats were used. […] On the fifth day (48 hours following the last treatment), the animals were sacrificed and the thymi weights were recorded. […] It is evident that the higher the inhibition of thymus activity at a given dose, the more toxic the compound is.

[2] = chloromethyl 11β-hydroxy-17α-isopropoxycarbonyloxyandrost-4-en-3-one-17β-carboxylate = 1

CC(C)OC(=O)O[C@]1(C(=O)OCCl)[C@@H](C)C[C@H]2[C@@H]3CCC4=CC(=O)C=C[C@]4(C)[C@@]3(F)[C@@H](O)C[C@@]21C [chloromethyl 9α-fluoro-11β-hydroxy-17α-isopropoxycarbonyloxy-16β-methylandrosta-1,4-dien-3-one-17β-carboxylate]
Body wt. gain ([1]; Table IV, 1 μg/pellet): 33.0 ± 1.7 g
Granulation tissue Dry wt. ([1]; Table IV, 1 μg/pellet): 44.4 ± 5.4 mg
Granulation tissue Dry wt. Inhibition ([1]; Table IV, 1 μg/pellet): 45.3%
Granulation tissue Wet wt. ([1]; Table IV, 1 μg/pellet): 423 ± 19 mg
Granulation tissue Wet wt. Inhibition ([1]; Table IV, 1 μg/pellet): 25.3%
Thymus wt. ([1]; Table IV, 1 μg/pellet): 526 ± 30 mg
Body wt. gain ([1]; Table IV, 3 μg/pellet): 30.4 ± 1.1 g
Granulation tissue Dry wt. ([1]; Table IV, 3 μg/pellet): 26.9 ± 4.4 mg
Granulation tissue Dry wt. Inhibition ([1]; Table IV, 3 μg/pellet): 66.9%
Granulation tissue Wet wt. ([1]; Table IV, 3 μg/pellet): 351 ± 19 mg
Granulation tissue Wet wt. Inhibition ([1]; Table IV, 3 μg/pellet): 38.0%
Thymus wt. ([1]; Table IV, 3 μg/pellet): 471 ± 20 mg
Body wt. gain ([1]; Table IV, 10 μg/pellet): 33.0 ± 1.5 g
Granulation tissue Dry wt. ([1]; Table IV, 10 μg/pellet): 29.9 ± 3.3 mg
Granulation tissue Dry wt. Inhibition ([1]; Table IV, 10 μg/pellet): 63.2%
Granulation tissue Wet wt. ([1]; Table IV, 10 μg/pellet): 362 ± 8 mg
Granulation tissue Wet wt. Inhibition ([1]; Table IV, 10 μg/pellet): 36.0%
Thymus wt. ([1]; Table IV, 10 μg/pellet): 474 ± 25 mg
Body wt. gain ([1]; Table IV, 30 μg/pellet): 31.8 ± 1.7 g
Granulation tissue Dry wt. ([1]; Table IV, 30 μg/pellet): 19.9 ± 2.3 mg
Granulation tissue Dry wt. Inhibition ([1]; Table IV, 30 μg/pellet): 75.5%
Granulation tissue Wet wt. ([1]; Table IV, 30 μg/pellet): 315 ± 12 mg
Granulation tissue Wet wt. Inhibition ([1]; Table IV, 30 μg/pellet): 44.3%
Thymus wt. ([1]; Table IV, 30 μg/pellet): 489 ± 26 mg
Relative potency (ED40) [1, 2]: 1228
Relative potency (ED60) [1, 2]: 184
ED40 ([1]; dose causing 40% inhibition of granulation tissue weight): 0.25 μg/pellet
ED50 ([1]; dose causing 50% inhibition of granulation tissue weight): 0.97 μg/pellet
ED60 ([1]; dose causing 60% inhibition of granulation tissue weight): 3.75 μg/pellet
Body weight gain (thymus weight in rats; Table VIII, 10 mg/kg/day s.c.): 5.3 ± 1.4 g
Thymus wt. (thymus weight in rats; Table VIII, 10 mg/kg/day s.c.): 260 ± 26 mg
Thymus wt. Inhibition (thymus weight in rats; Table VIII, 10 mg/kg/day s.c.): 52.7%

CC(C)OC(=O)O[C@]1(C(=O)OCCl)[C@@H](C)C[C@H]2[C@@H]3CCC4=CC(=O)C=C[C@]4(C)[C@@]3(F)C(=O)C[C@@]21C [chloromethyl 9α-fluoro-17α-isopropoxycarbonyloxy-16β-methylandrosta-1,4-dien-3,11-dione-17β-carboxylate]
Body wt. gain ([1]; Table V-b, 1 μg/pellet): 28.9 ± 1.1 g
Dry granulation Tissue ([1]; Table V-b, 1 μg/pellet): 59.1 ± 5.8 mg
Dry granulation Tissue Inhibition ([1]; Table V-b, 1 μg/pellet): 12.1%
Thymus wt. ([1]; Table V-b, 1 μg/pellet): 441 ± 24 mg
Body wt. gain ([1]; Table V-b, 3 μg/pellet): 25.8 ± 0.9 g
Dry granulation Tissue ([1]; Table V-b, 3 μg/pellet): 49.4 ± 3.7 mg
Dry granulation Tissue Inhibition ([1]; Table V-b, 3 μg/pellet): 26.5%
Thymus wt. ([1]; Table V-b, 3 μg/pellet): 519 ± 31 mg
Body wt. gain ([1]; Table V-b, 10 μg/pellet): 28.4 ± 0.8 g
Dry granulation Tissue ([1]; Table V-b, 10 μg/pellet): 51.1 ± 5.8 mg
Dry granulation Tissue Inhibition ([1]; Table V-b, 10 μg/pellet): 24.0%
Thymus wt. ([1]; Table V-b, 10 μg/pellet): 547 ± 35 mg
Body wt. gain ([1]; Table V-b, 30 μg/pellet): 27.4 ± 0.9 g
Dry granulation Tissue ([1]; Table V-b, 30 μg/pellet): 40.6 ± 3.6 mg
Dry granulation Tissue Inhibition ([1]; Table V-b, 30 μg/pellet): 39.6%
Thymus wt. ([1]; Table V-b, 30 μg/pellet): 536 ± 24 mg

CC(C)OC(=O)O[C@]1(C(=O)OCCl)[C@H](C)C[C@H]2[C@@H]3CCC4=CC(=O)C=C[C@]4(C)[C@@]3(F)[C@@H](O)C[C@@]21C [chloromethyl 9α-fluoro-11β-hydroxy-17α-isopropoxycarbonyloxy-16α-methylandrosta-1,4-dien-3-one-17β-carboxylate]
Body weight gain (thymus weight in rats; Table VIII, 10 mg/kg/day s.c.): 2.7 ± 1.9 g
Thymus wt. (thymus weight in rats; Table VIII, 10 mg/kg/day s.c.): 234 ± 31 mg
Thymus wt. Inhibition (thymus weight in rats; Table VIII, 10 mg/kg/day s.c.): 57.5%

CCOC(=O)O[C@]1(C(=O)OCCl)[C@H](C)C[C@H]2[C@@H]3CCC4=CC(=O)C=C[C@]4(C)[C@@]3(F)C(=O)C[C@@]21C [chloromethyl 17α-ethoxycarbonyloxy-9α-fluoro-16α-methylandrosta-1,4-dien-3,11-dione-17β-carboxylate]
Body wt. gain ([1]; Table V-b, 1 μg/pellet): 23.7 ± 1.5 g
Dry granulation Tissue ([1]; Table V-b, 1 μg/pellet): 55.3 ± 2.6 mg
Dry granulation Tissue Inhibition ([1]; Table V-b, 1 μg/pellet): 17.7%
Thymus wt. ([1]; Table V-b, 1 μg/pellet): 459 ± 41 mg
Body wt. gain ([1]; Table V-b, 3 μg/pellet): 25.6 ± 1.2 g
Dry granulation Tissue ([1]; Table V-b, 3 μg/pellet): 51.6 ± 5.9 mg
Dry granulation Tissue Inhibition ([1]; Table V-b, 3 μg/pellet): 23.2%
Thymus wt. ([1]; Table V-b, 3 μg/pellet): 467 ± 21 mg
Body wt. gain ([1]; Table V-b, 10 μg/pellet): 26.5 ± 2.5 g
Dry granulation Tissue ([1]; Table V-b, 10 μg/pellet): 41.5 ± 4.7 mg
Dry granulation Tissue Inhibition ([1]; Table V-b, 10 μg/pellet): 38.2%
Thymus wt. ([1]; Table V-b, 10 μg/pellet): 544 ± 31 mg
Body wt. gain ([1]; Table V-b, 30 μg/pellet): 20.3 ± 0.9 g
Dry granulation Tissue ([1]; Table V-b, 30 μg/pellet): 39.9 ± 3.6 mg
Dry granulation Tissue Inhibition ([1]; Table V-b, 30 μg/pellet): 40.6%
Thymus wt. ([1]; Table V-b, 30 μg/pellet): 463 ± 24 mg

CCCCCOC(=O)O[C@]1(C(=O)OCCl)[C@H](C)C[C@H]2[C@@H]3CCC4=CC(=O)C=C[C@]4(C)[C@@]3(F)[C@@H](O)C[C@@]21C [chloromethyl 9β-fluoro-11β-hydroxy-16α-methyl-17α-pentyloxycarbonyloxyandrosta-1,4-dien-3-one-17β-carboxylate]
Body weight gain (thymus weight in rats; Table IX, 1 mg/kg/day s.c.): 18.0 ± 1.5 g
Thymus wt. (thymus weight in rats; Table IX, 1 mg/kg/day s.c.): 387 ± 23 mg
Thymus wt. Decrease (thymus weight in rats; Table IX, 1 mg/kg/day s.c.): 9.2%
Body weight gain (thymus weight in rats; Table IX, 3 mg/kg/day s.c.): 15.6 ± 1.3 g
Thymus wt. (thymus weight in rats; Table IX, 3 mg/kg/day s.c.): 347 ± 15 mg
Thymus wt. Decrease (thymus weight in rats; Table IX, 3 mg/kg/day s.c.): 18.5%
Body weight gain (thymus weight in rats; Table IX, 10 mg/kg/day s.c.): 17.4 ± 1.5 g
Thymus wt. (thymus weight in rats; Table IX, 10 mg/kg/day s.c.): 357 ± 22 mg
Thymus wt. Decrease (thymus weight in rats; Table IX, 10 mg/kg/day s.c.): 16.2%
Body weight gain (thymus weight in rats; Table IX, 30 mg/kg/day s.c.): 13.5 ± 1.0 g
Thymus wt. (thymus weight in rats; Table IX, 30 mg/kg/day s.c.): 335 ± 17 mg
Thymus wt. Decrease (thymus weight in rats; Table IX, 30 mg/kg/day s.c.): 21.4%
